Reference: patent publication US11524950B2, “Treatment of immune-related and inflammatory diseases” (Celgene Corporation, priority 2012, dated 2022)

Legend:
IgG [1] = experiment: IgG production by SLE patient PBMC (ELISA); details: Homo sapiens, read-out: IgG IC50 (nM) SLE (n = 3)
IgG [2] = experiment: IgG production in normal B cell / PBMC differentiation cultures (ELISA); details: Homo sapiens
IL-2 = experiment: T-cell costimulation: IL-2 production (immobilized anti-CD3, ELISA); format: cell-based; details: Homo sapiens, 48 h, read-out: EC50 for co-stimulated IL-2 production by T cells
Protocol: CRBN ubiquitination was measured in HEK293T cells, which were transfected with an amino-terminal His-biotin-tagged CRBN construct, then preincubated with compounds for one hour followed by treatment with the MG132 proteasome inhibitor (to arrest degradation of ubiquitinated proteins). Cells were lysed and processed to measure CRBN ubiquitination by SDS-PAGE and immunoblot analysis using an anti-ubiquitin antibody. Cell proliferation studies were conducted in enalidomide-sensitive and refractory multiple myeloma cells. […] T-cell costimulation was measured in purified primary human T cells stimulated using immobilized anti-CD3 antibody in cell culture for 2 days, and cytokine secretion was measured by ELISA.

CRBN = target: T1, CRBN (Homo sapiens, UniProt Q96SW2); experiment: Competitive CRBN binding with thalidomide analog-conjugated beads (U266 extracts); details: preincubation at 3 uM
T1 construct: endogenous in cells; host or cells: U266 multiple myeloma cells (cell extracts)
Protocol: Binding studies to CRBN were conducted using thalidomide analog-conjugated beads in a competitive assay. […] Affinity beads coupled to a thalidomide acid analog were incubated with the U266 extracts and, after extensive washing of the beads, the bound proteins were eluted. CRBN binding to the thalidomide-coupled affinity beads was determined by quantitative CRBN immunoblot determination.

IgM [3] = experiment: IgM production by SLE patient PBMC (ELISA); details: Homo sapiens, read-out: IgM IC50 (nM) SLE (n = 3)
IgM [4] = experiment: IgM production in normal PBMC differentiation cultures (ELISA); details: Homo sapiens, read-out: IgM IC50 (nM) Normal (n = 3)
DBA/2 mice [5] = experiment: Bleomycin-induced dermal fibrosis mouse model (regression of established fibrosis); format: in vivo; details: 50 mg/kg, p<0.0001
Protocol: (§1) DBA/2 mice were used in this study. Eight animals were used per treatment group in the study. Mice were kept in the animal house under standard conditions with food and water ad libidum.
(§2) The compound was suspended, not dissolved, in this vehicle. The formulation was homogenized with a Teflon pestle and mortar (Potter-Elvehjem tissue grinder) using a motorized Eberbach tissue homogenizer. The daily drug stock concentration used in these studies was 3 mg/ml.
(§3) Bleomycin was obtained from the pharmacy of the University of Erlangen-Nuremberg and freshly prepared once a week. Skin fibrosis was induced in 6-week-old DBA mice by local intracutaneous injections of 100 μl of bleomycin dissolved in 0.9% NaCl, at a concentration of 0.5 mg/ml, every other day in defined areas of 1.5 cm^2 on the upper back.
To evaluate regression of fibrosis, a modified model of bleomycin induced dermal fibrosis was used. Mice were pre-challenged with bleomycin to induce a robust skin fibrosis. One group received treatment with the test compound, while challenge with bleomycin was ongoing for additional three weeks. The outcome of this group was compared to mice challenged with bleomycin for six weeks (prevention of further progression) and to mice challenged with bleomycin for three weeks followed by NaCl for additional three weeks (induction of regression). The following groups were used in the regression study: • Control group: Intradermal injection of NaCl for six weeks. Control treatment consisted of administration of the vehicle. • Untreated bleomycin group 1 (regression): Intradermal injection of bleomycin for three weeks followed by intradermal injections of NaCl for another three weeks. Treatment consisted of administration of the vehicle. […]
(§4) Dermal thickness was determined by staining with hematoxylin and eosin and activated fibroblasts by using immunohistochemistry for alpha smooth muscle actin (α-SMA). The dermal thickness, as determined by the modified Rodnan Skin Score, is currently the most common primary outcome in human clinical trials for anti-fibrotic agents in SSc. […] Dermal thickness was analyzed with a Nikon Eclipse 80i microscope (Nikon, Badhoevedorp, The Netherlands) by measuring the maximal distance between the epidermal-dermal junction and the dermal-subcutaneous fat junction at 4 different skin sections in each mouse. […]
(§5) For quantification of myofibroblasts, skin sections were deparaffinized and incubated with 5% bovine serum albumin for 60 minutes. Cells positive for α-SMA were detected by incubation with monoclonal anti-α-SMA antibodies (clone 1A4; Sigma-Aldrich, Steinheim, Germany) for 2 hours at room temperature followed by incubation with 3% hydrogen peroxide for 10 minutes. […]

Tsk-1 mouse = experiment: Tight skin-1 (Tsk-1) mouse model: hypodermal thickness and hydroxyproline; format: in vivo; details: 50 mg/kg; p≤0.001
Text: First, the inhibitory effects of the compound on fibrosis in the Tsk-1 tight skin mouse model were also investigated.

DBA/2 mice [6] = experiment: Bleomycin-induced dermal fibrosis mouse model (prevention); format: in vivo; details: 50 mg/kg, IP, QD, p<0.0001
Protocol: as §1
The vehicle, 0.5% carboxymethyl cellulose (CMC)/0.25% Tween 80, was prepared in distilled H2O and dissolved overnight on a magnetic stirrer (add 0.5 g CMC; Sigma #C9481) and 0.25 ml Tween 80 (Sigma #P8074) to 99.75 ml to make a total of 100 ml 0.5% CMC/0.25% Tween 80).
as §2, §3
The mouse model of bleomycin induced dermal fibrosis is widely used to evaluate anti-fibrotic therapeutics. In this model, a localized dermal fibrosis is induced by intradermal injections with bleomycin every other day for 3 weeks. This model resembles early, inflammatory stages of SSc. To evaluate potential effects on prevention of fibrosis, treatment was initiated simultaneously with the first bleomycin injection. […] Treatment consisted of administration of the vehicle (0.5% CMC/0.25% Tween 80). • Untreated bleomycin group: Intradermal injection of bleomycin for three weeks. […] Injection of Imatinib (50 mg/kg; IP, QD). […] See Akhmetshina A. et al., Arthritis Rheum 2009; 60(1):219-224.
as §4, §5

[7] = PBMC, read-out: IgG IC50 (nM) Normal (n = 3)

Row | Structure (SMILES) | IC50 (IgG [1]) [nM] | IC50 (IgG [2]; [7]) [nM] | IC50 (IgG [2]; read-out: IgG production IC50) [nM] | IC50 (IgM [3]) [nM] | IC50 (IgM [4]) [nM] | further results
1 | Nc1cccc2c1C(=O)N(C1CCC(=O)NC1=O)C2=O (stereo not drawn) [pomalidomide] | 19 | 63 | 49 | 3.8 | 17 | EC50 (IL-2): 10 nM; less CRBN bound to the affinity beads (CRBN): approximately 50%
2 | CCOc1cc([C@@H](CS(C)(=O)=O)N2C(=O)c3cccc(NC(C)=O)c3C2=O)ccc1OC [apremilast] | > 10000 | > 10000 | – | > 10000 | > 10000 | –
3 | Cc1ccc(NC(=O)c2ccc(CN3CCN(C)CC3)cc2)cc1Nc1nccc(-c2cccnc2)n1 [Imatinib, reference compound] | – | – | – | – | – | reduction of bleomycin induced dermal thickness (DBA/2 mice [5]): 50±0.3%; reduction of myofibroblast numbers (DBA/2 mice [5]): 78±0.15%; reduction of collagen content of the skin (hydroxyproline levels) (Tsk-1 mouse): 67%; reduction of hypodermal thickening (Tsk-1 mouse): 58%; reduction of dermal thickening (DBA/2 mice [6]; 3 weeks): 60±0.34%; reduction of myofibroblast numbers (DBA/2 mice [6]): 81±0.11%
4 | Nc1cccc2c1CN(C1CCC(=O)NC1=O)C2=O (stereo not drawn) [lenalidomide] | – | – | 320 | – | – | –
